Structures can show the parent of a compound that is named as a salt.
melting point [°C]	SMILES
88 to 90	CN1CC=C(c2cn(S(=O)(=O)C3CCCCC3)c3ccc(Cl)cc23)CC1 [Example 2, 5-Chloro-1-cyclohexanesulfonyl-3-(1-methyl-1,2,3,6-tetrahydropyridine-4-yl)-1H-indole]
263	O=S(=O)(C1CCCCC1)n1cc(C2=CCN3CCCC3C2)c2cc(F)ccc21 (stereo not shown) (as salt: hydrochloride) [Example 4, 1-Cyclohexanesulfonyl-5-fluoro-3-(1,2,3,5,8,8a-hexahydro-indolizine-7-yl)-1H-indole hydrochloride]
75	CN1CC=C(c2cn(S(=O)(=O)C3CCCCC3)c3ccc(N)cc23)CC1 [Example 3, 5-Amino-1-cyclohexanesulfonyl-3-(1-methyl-1,2,3,6-tetrahydropyridine-4-yl)-1H-indole]
155 to 160	CN1CC=C(c2cn(S(=O)(=O)C3CCCCC3)c3ccc([N+](=O)[O-])cc23)CC1 [Example 1, 1-Cyclohexanesulfonyl-3-(1-methyl-1,2,3,6-tetrahydropyridine-4-yl)-5-nitro-1H-indole]

— patent publication US7655690B2, “1-sulfonylindole derivatives, their preparation and their use as 5-HT6 ligands” (Laboratorios del Dr. Esteve S.A., priority 2004, dated 2010)
